Assay results taken from patent US11773094B2, “Farnesoid X receptor agonists and uses thereof” (Metacrine, Inc., priority 2018, dated 2023).

These compounds were tested against T1, hFXR (Homo sapiens, UniProt Q96RI1) (assay: In Vitro FXR Assay (TK): TK-ECRE-luc reporter in transfected CV-1 cells). Conditions: CV-1 cells transfected with hFXR, hRXR, pCMX-YFP, 18 hrs incubation, luminescence.
T1 construct: expressed in transfected cells; host or cells: CV-1 cells
T1 sequence (Q96RI1 1-486): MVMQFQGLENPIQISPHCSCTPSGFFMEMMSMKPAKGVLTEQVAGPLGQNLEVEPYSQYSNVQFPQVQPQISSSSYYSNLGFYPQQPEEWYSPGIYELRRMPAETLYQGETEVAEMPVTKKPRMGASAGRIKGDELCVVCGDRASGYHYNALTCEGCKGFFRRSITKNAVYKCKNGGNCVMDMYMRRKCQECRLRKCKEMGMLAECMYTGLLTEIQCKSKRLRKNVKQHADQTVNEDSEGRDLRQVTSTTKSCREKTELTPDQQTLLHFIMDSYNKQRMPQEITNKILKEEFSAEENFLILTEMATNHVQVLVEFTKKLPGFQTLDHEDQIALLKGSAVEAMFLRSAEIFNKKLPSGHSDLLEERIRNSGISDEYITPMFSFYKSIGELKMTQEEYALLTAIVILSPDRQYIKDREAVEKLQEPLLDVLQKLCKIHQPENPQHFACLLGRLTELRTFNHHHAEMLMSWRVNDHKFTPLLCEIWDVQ
T1 sequence (P19793 1-462 partner): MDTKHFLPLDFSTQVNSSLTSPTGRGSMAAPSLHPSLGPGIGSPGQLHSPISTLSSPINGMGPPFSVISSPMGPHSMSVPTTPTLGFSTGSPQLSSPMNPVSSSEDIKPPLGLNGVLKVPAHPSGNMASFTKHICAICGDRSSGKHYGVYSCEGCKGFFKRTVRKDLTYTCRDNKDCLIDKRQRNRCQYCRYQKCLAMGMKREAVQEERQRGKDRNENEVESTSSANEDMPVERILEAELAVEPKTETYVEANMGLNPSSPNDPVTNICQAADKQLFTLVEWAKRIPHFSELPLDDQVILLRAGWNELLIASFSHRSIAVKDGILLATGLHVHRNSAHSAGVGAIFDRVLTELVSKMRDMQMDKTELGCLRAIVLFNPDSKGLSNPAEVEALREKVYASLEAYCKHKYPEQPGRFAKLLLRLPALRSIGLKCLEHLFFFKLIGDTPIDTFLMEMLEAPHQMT
Format: cell-based
How it was run: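 Luminescence from a TK-ECRE-luc reporter was read after 18 h of compound exposure in CV-1 cells. These cells were grown in charcoal-stripped FBS medium and transiently transfected with hFXR, hRXR and YFP expression plasmids.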

| EC50 | SMILES |
| --- | --- |
| ≤ 10 nM | COc1ccc(C23CCC(CN(c4cc(-c5cnc(C(C)(C)C)s5)ccn4)C(=O)[C@H]4CC[C@H](OC(=O)N5CC(CO)C5)CC4)(CC2)CC3)cc1C [Compound 3.08, 4-((4-(2-(tert-Butyl)thiazol-5-yl)pyridin-2-yl)((4-(4-methoxy-3-methylphenyl)bicyclo[2.2.2]octan-1-yl)methyl)carbamoyl) (trans-cyclohexyl) 3-(hydroxymethyl)azetidine-1-carboxylate] |
| ≤ 10 nM | COc1c(C)cc(C23CCC(CN(c4cc(-c5cnn(C(C)(C)C)c5)ccn4)C(=O)[C@H]4CC[C@H](OC(=O)N5CC(O)C5)CC4)(CC2)CC3)cc1C [Compound 3.04, 4-((4-(1-(tert-Butyl)-1H-pyrazol-4-yl)pyridin-2-yl)((4-(4-methoxy-3,5-dimethylphenyl)bicyclo[2.2.2]octan-1-yl)methyl)carbamoyl) (trans-cyclohexyl) 3-hydroxyazetidine-1-carboxylate] |
| ≤ 10 nM | COc1ccc([C@]23CC[C@@](CN(c4cc(-c5cnn(C(C)(C)C)c5)ccn4)C(=O)[C@H]4CC[C@H](OC(=O)N5CC(CO)C5)CC4)(CC2)CC3)cc1C [Compound 3.02, 4-((4-(1-(tert-Butyl)-1H-pyrazol-4-yl)pyridin-2-yl)(trans(4-(4-methoxy-3-methylphenyl)bicyclo[2.2.2]octan-1-yl)methyl)carbamoyl) (trans-cyclohexyl) 3-(hydroxymethyl)azetidine-1-carboxylate] |
| ≤ 10 nM | COc1ccc(C23CCC(CN(c4cc(-c5cnn(C(C)(C)C(F)(F)F)c5)ccn4)C(=O)[C@H]4CC[C@H](OC(=O)N5CC(O)C5)CC4)(CC2)CC3)cc1C [Compound 4.09, 4-(((4-(4-Methoxy-3-methylphenyl)bicyclo[2.2.2]octan-1-yl)methyl)(4-(1-(1,1,1-trifluoro-2-methylpropan-2-yl)-1H-pyrazol-4-yl)pyridin-2-yl)carbamoyl)cyclohexyl trans-3-hydroxyazetidine-1-carboxylate] |
| 10 to 1000 nM | COc1c(C)cc(C23CCC(CN(c4nccc(-c5cnn(C(C)(C)C)c5)n4)C(=O)[C@H]4CC[C@H](OC(=O)N5CC(O)C5)CC4)(CC2)CC3)cc1C [Compound 3.15, 4-((4-(1-(tert-Butyl)-1H-pyrazol-4-yl)pyrimidin-2-yl)((4-(4-methoxy-3,5-dimethylphenyl)bicyclo[2.2.2]octan-1-yl)methyl)carbamoyl) (trans-cyclohexyl) 3-hydroxyazetidine-1-carboxylate] |
| 10 to 1000 nM | COc1ccc(C23CCC(CN(c4cc(-c5cnn(C(C)(C)C)c5)ccn4)C(=O)[C@H]4CC[C@H](OC(=O)NC5CCS(=O)(=O)CC5)CC4)(CC2)CC3)cc1C [Compound 2.39, 4-((4-(1-(tert-Butyl)-1H-pyrazol-4-yl)pyridin-2-yl)((4-(4-methoxy-3-methylphenyl)bicyclo[2.2.2]octan-1-yl)methyl)carbamoyl) cyclohexyl trans-(1,1-dioxidotetrahydro-2H-thiopyran-4-yl)carbamate] |

The remaining lines, values behind:

| SMILES | EC50 |
| --- | --- |
| COc1c(C)cc(C23CCC(CN(c4cncc(-c5cnn(C(C)(C)C)c5)n4)C(=O)[C@H]4CC[C@H](OC(=O)N5CC(O)C5)CC4)(CC2)CC3)cc1C [Compound 3.13, 4-((6-(1-(tert-Butyl)-1H-pyrazol-4-yl)pyrazin-2-yl)((4-(4-methoxy-3,5-dimethylphenyl)bicyclo[2.2.2]octan-1-yl)methyl)carbamoyl) (trans-cyclohexyl) 3-hydroxyazetidine-1-carboxylate] | 10 to 1000 nM |
| COc1ccc([C@H]2CC[C@H](CN(c3cc(-c4cnn(C(C)(C)C)c4)ccn3)C(=O)[C@H]3CC[C@H](OC(=O)N4CC(O)C4)CC3)CC2)cc1C [Compound 1.08, trans-4-((4-(1-(tert-Butyl)-1H-pyrazol-4-yl)pyridin-2-yl)((trans-4-(4-methoxy-3-methylphenyl)cyclohexyl)methyl)carbamoyl) cyclohexyl 3-hydroxyazetidine-1-carboxylate] | 10 to 1000 nM |
| CCC(C)(CC)n1cc(-c2ccnc(N(CC34CCC(c5ccc(OC)c(C)c5)(CC3)CC4)C(=O)[C@H]3CC[C@H](OC(=O)N4CC(C)(O)C4)CC3)c2)cn1 [Compound 4.05, 4-(((4-(4-Methoxy-3-methylphenyl)bicyclo[2.2.2]octan-1-yl)methyl)(4-(1-(3-methylpentan-3-yl)-1H-pyrazol-4-yl)pyridin-2-yl)carbamoyl)cyclohexyl trans-3-hydroxy-3-methylazetidine-1-carboxylate] | ≤ 10 nM |
| COc1ccc(C23CCC(CN(c4cc(-c5coc(C(C)(C)C)n5)ccn4)C(=O)[C@H]4CC[C@H](OC(=O)N5CC(C)(O)C5)CC4)(CC2)CC3)cc1C [Compound 2.12, 4-((4-(2-(tert-Butyl)oxazol-4-yl)pyridin-2-yl)((4-(4-methoxy-3-methylphenyl)bicyclo[2.2.2]octan-1-yl)methyl)carbamoyl) (trans-cyclohexyl) 3-hydroxy-3-methylazetidine-1-carboxylate] | ≤ 10 nM |
| COc1ccc(C23CCC(CN(c4cc(-c5cnn(C(C)(C)C)c5)ccn4)C(=O)[C@H]4CC[C@H](OC(=O)N5CCC(O)C5)CC4)(CC2)CC3)cc1C (stereo partly drawn) [Compound 3.03, 4-((4-(1-(tert-Butyl)-1H-pyrazol-4-yl)pyridin-2-yl)((4-(4-methoxy-3-methylphenyl)bicyclo[2.2.2]octan-1-yl)methyl)carbamoyl) (trans-cyclohexyl) 3-hydroxypyrrolidine-1-carboxylate] | ≤ 10 nM |
| CCC(C)(CC)n1cc(-c2ccnc(N(CC34CCC(c5ccc(OC)c(C)c5)(CC3)CC4)C(=O)[C@H]3CC[C@H](OC(=O)N4CCC(O)CC4)CC3)c2)cn1 [Compound 4.06, 4-(((4-(4-Methoxy-3-methylphenyl)bicyclo[2.2.2]octan-1-yl)methyl)(4-(1-(3-methylpentan-3-yl)-1H-pyrazol-4-yl)pyridin-2-yl)carbamoyl)cyclohexyl trans-4-hydroxypiperidine-1-carboxylate] | ≤ 10 nM |
| COc1ccc(C23CCC(CN(c4cncc(-c5cnn(C(C)(C)C)c5)n4)C(=O)[C@H]4CC[C@H](OC(=O)N5CC(O)C5)CC4)(CC2)CC3)cc1C [Compound 3.12, 4-((6-(1-(tert-Butyl)-1H-pyrazol-4-yl)pyrazin-2-yl)((4-(4-methoxy-3-methylphenyl)bicyclo[2.2.2]octan-1-yl)methyl)carbamoyl) (trans-cyclohexyl) 3-hydroxyazetidine-1-carboxylate] | 10 to 1000 nM |
| COc1ccc(C23CCC(CN(c4cc(-c5cnc(C(C)(C)C)s5)ccn4)C(=O)[C@H]4CC[C@H](OC(=O)NCCCO)CC4)(CC2)CC3)cc1C [Compound 2.02, 4-((4-(2-(tert-Butyl)thiazol-5-yl)pyridin-2-yl)((4-(4-methoxy-3-methylphenyl)bicyclo[2.2.2]octan-1-yl)methyl)carbamoyl) (trans-cyclohexyl) (3-hydroxypropyl)carbamate] | ≤ 10 nM |
| CCC(C)(CC)n1cc(-c2ccnc(N(CC34CCC(c5ccc(OC)c(C)c5)(CC3)CC4)C(=O)[C@H]3CC[C@H](OC(=O)NCCCO)CC3)c2)cn1 [Compound 4.07, 4-(((4-(4-Methoxy-3-methylphenyl)bicyclo[2.2.2]octan-1-yl)methyl)(4-(1-(3-methylpentan-3-yl)-1H-pyrazol-4-yl)pyridin-2-yl)carbamoyl)cyclohexyl trans-(3-hydroxypropyl)carbamate] | ≤ 10 nM |
